This is an account of results in PubChem BioAssay (NCI).

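Cultured in 96-well plates, cells were exposed to test compound for 48 hours across five concentrations. Abbreviation: GI50, concentration required for 50% inhibition of growth. At the TGI there is no net growth.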

What all share (experiment): NCI tumour cell line growth inhibition, 48 h
Experiment [1] relates to IGROV1 ovarian.
The test system of experiment [2] is COLO 205 colon.
For experiment [3], the system named is U251 CNS.
For experiment [4], the system named is OVCAR-4 ovarian.
Experiment [5] relates to BT-549 breast.
Experiment [6] deals with SK-MEL-5 melanoma.
Experiment [7] relates to HS 578T breast.
For experiment [8], the system named is MCF7 breast.
Experiment [9] deals with UACC-62 melanoma.
Experiment [10] relates to EKVX NSCLC.

For `CC(C)C[C@H](NC(=O)[C@@H](O)[C@H](N)Cc1ccccc1)C(=O)O`, the TGI in [1], in experiment [2], in experiment [3], in [4], in [5] and in [6] was greater than 100 µM throughout. Moreover, the TGI in experiment [7], in [8] and in [9] was greater than 100 µM throughout. Further, the GI50 in [5] was greater than 100 µM.

As for `CC1(C)CC2(C)OC2C2(C1)N=NC(=Nc1ccccc1)O2` (centres undefined), the GI50 in experiment [1] was 2.48 µM; in experiment [2], 10.9 µM; in experiment [3], 13 µM; in [4] it was 3.45 µM; in [5], 2.22 µM; in experiment [6], 5.48 µM. Moreover, the GI50 in experiment [7] is 17.3 µM; in experiment [8], 1.81 µM; in experiment [9] it was 3.76 µM. Moreover, the TGI in experiment [1] came out at 5.99 µM; in [2], 24.9 µM; in experiment [3], 26 µM; in experiment [4] it was 17.2 µM; in experiment [5], 4.99 µM; in [6] it was 18.5 µM. In addition, the TGI is 71.7 µM in [7], 13.2 µM in experiment [8] and 16 µM in [9].

On to `CN1CC(C(=O)NC2(C)OC3(O)C4CCCN4C(=O)C(Cc4ccccc4)N3C2=O)C=C2c3cccc4[nH]cc(c34)CC21` (centres undefined), for which the TGI in [10] was greater than 100 µM; in [1], 50.8 µM; in [2], 40 µM; in experiment [3], 38.2 µM; in experiment [4] it was greater than 100 µM; in [5], 43 µM. Also, the TGI was 30.6 µM in experiment [6], 29 µM in [7], greater than 100 µM in experiment [8] and 34.7 µM in experiment [9].

In the case of `COc1cc(/C=C\c2cccnc2Nc2ccccc2)cc(OC)c1OC`, the GI50 in experiment [10] is 7.55 µM; in experiment [1], 12.6 µM; in experiment [2] it was 4.44 µM; in experiment [3] it was 4.1 µM; in experiment [4], 9.78 µM; in [5], 14.3 µM. Also, the GI50 is 4.17 µM in experiment [6], 13.2 µM in experiment [7], 3.97 µM in [8] and 4.96 µM in experiment [9]. Further, the TGI was greater than 100 µM in experiment [10]; greater than 100 µM in experiment [1]; 16.2 µM in experiment [2]; greater than 100 µM in experiment [3]; greater than 100 µM in experiment [4]; 65.3 µM in experiment [5]. Besides, the TGI in experiment [6] was 16.4 µM; in experiment [7], greater than 100 µM; in experiment [8] it was 44.7 µM; in experiment [9] it was 25.4 µM.

As to `Cc1nc(C(N)=S)sc1C(=O)CC(=O)C(=O)Nc1cccc(Cl)c1C`, the TGI in experiment [10], in [1], in [3], in experiment [4], in experiment [5] and in experiment [6] was greater than 100 µM in each case. The TGI in experiment [7], in experiment [8] and in experiment [9] was greater than 100 µM each time.

With `CC(=O)N[C@@H]1CCC[C@H](C(=O)Nc2cc(-c3cnn4c3CC(C)(C)C4)c(Cl)cn2)C1`, the GI50 is 0.0197 µM in experiment [10]; less than 0.01 µM in experiment [1]; less than 0.01 µM in experiment [3]; 0.0235 µM in experiment [4]; less than 0.01 µM in experiment [5]; less than 0.01 µM in [6]. The GI50 in [7], in experiment [8] and in experiment [9] was less than 0.01 µM throughout. The TGI in experiment [1] is greater than 100 µM; in experiment [3] it was greater than 100 µM; in experiment [4] it was 25.4 µM; in experiment [5], 0.0499 µM; in [6], less than 0.0406 µM; in experiment [7], 20.1 µM. Also, the TGI amounted to 40.6 µM in [8] and 0.0549 µM in experiment [9].

With `CCC1(N2C(=O)c3c(F)c(F)c(F)c(F)c3C2=O)C(=O)NC(=O)N(c2ccccc2)C1=O` (centres undefined), the GI50 in experiment [10] is 2.77 µM; in [2], 2.57 µM; in experiment [3], 1.53 µM; in [4], 1.74 µM; in [5] it was 2.1 µM; in [7], 4.14 µM. For the same molecule, the figures for the GI50 in [8] and in experiment [9] were 2.21 µM and 1.41 µM, respectively. The TGI in experiment [10] is 8.01 µM; in [2], 6.78 µM; in [3] it was 3.07 µM; in [4], 4.08 µM; in [5], 4.76 µM; in [7], 30.1 µM. The TGI is 17 µM in [8] and 3.1 µM in [9].

`O=C(CN=Cc1cccs1)CSC(c1ccccc1)c1ccccc1`: the GI50 in experiment [10] is 26.2 µM; in [2], 11.7 µM; in experiment [3], 34.5 µM; in [4], 26.5 µM; in experiment [5] it was 18.4 µM; in experiment [6], 15.6 µM. The GI50 in [7] is 26.1 µM; in experiment [8], 18.8 µM; in experiment [9] it was 16.2 µM. In addition, the TGI in [10] was 96.9 µM; in experiment [2], 24 µM; in experiment [3], greater than 100 µM; in experiment [4], greater than 100 µM; in experiment [5], 40 µM; in [6] it was 29 µM. The TGI in experiment [7] was determined as 97 µM; in [8] it was 52.6 µM; in experiment [9] it was 36.9 µM.

Consider `O=c1c2cc(F)ccc2sc2c(NCCCN3CCCC3)nc3ccccc3c12`, for which the GI50 in [10] was 2.58 µM; in [1], 1.84 µM; in experiment [3], 1.81 µM; in experiment [4] it was 2.01 µM; in experiment [5] it was 2.99 µM; in [6], 1.69 µM. Also, the GI50 in experiment [7] was 2.18 µM; in experiment [8], 1.22 µM; in experiment [9], 1.87 µM. Besides, the TGI in experiment [10] was 8.48 µM; in experiment [1], 3.85 µM; in experiment [3], 3.62 µM; in experiment [4], 4.61 µM; in [5], 12 µM; in experiment [6], 3.07 µM. The results for the TGI in experiment [7], in experiment [8] and in experiment [9] were 6.22 µM, 2.89 µM and 3.77 µM, respectively.

Turning to `C#Cc1ccc(-n2c(/C=C/c3cc(OC)c(OC)c(OC)c3)nc3ncccc3c2=O)cc1`, the GI50 in [1] is 6.08 µM; in experiment [2], 3.19 µM; in experiment [3], 9.93 µM; in experiment [4] it was 12 µM; in [5], 2.99 µM; in experiment [6], 1.78 µM. Besides, the figures for the GI50 in [7], in experiment [8] and in [9] were 3.67 µM, 3.17 µM and 6.9 µM, respectively. Also, the TGI in experiment [1] is greater than 100 µM; in experiment [2] it was 11.9 µM; in experiment [3], greater than 100 µM; in [4], 90.3 µM; in [5], 9.95 µM; in experiment [6], 4.4 µM. Also, the TGI in experiment [7] was 23 µM; in experiment [8], greater than 100 µM; in [9], greater than 100 µM.

As to `O=c1[nH]c(-c2ccccn2)nc2sc3c(c12)CCCCCC3`, the GI50 in [1] is 3.98 µM; in experiment [2], 5.85 µM; in experiment [3] it was 2.16 µM; in [4] it was 5.88 µM; in experiment [5] it was 5.62 µM; in experiment [6] it was 2.92 µM. For the same molecule, the GI50 in experiment [7] is 6.45 µM; in experiment [8], 2.47 µM; in [9], 5.51 µM. Further, the TGI in experiment [1], in experiment [2], in experiment [3], in experiment [4], in experiment [5] and in [6] was greater than 100 µM in each case. For the same molecule, the TGI in experiment [7], in experiment [8] and in [9] was greater than 100 µM throughout.

Consider `COC(=O)C1=C(O)C(C(=O)OC)[C@@]2(O)[C@@H](C(=O)OC)C(c3ccc(OC(=O)C(CC(C)C)NC(C)=O)cc3)C[C@@H]1[C@@H]2C(=O)OC` (some centres undefined), for which the GI50 in [10] was 39.7 µM; in experiment [1], greater than 100 µM; in experiment [2] it was 46.6 µM; in experiment [3], 26.5 µM; in experiment [5], 33.6 µM; in experiment [6] it was 18.5 µM. Moreover, the results for the GI50 in experiment [7], in experiment [8] and in experiment [9] were 58.3 µM, 48.8 µM and 23.2 µM, respectively. In addition, the TGI in experiment [10] was greater than 100 µM; in [1], greater than 100 µM; in experiment [2], greater than 100 µM; in [3], 76.4 µM; in experiment [5], greater than 100 µM; in [6], greater than 100 µM. The figures for the TGI in experiment [7], in experiment [8] and in [9] were greater than 100 µM, greater than 100 µM and 63.8 µM, respectively.

Regarding `CC(C)(C)c1ccc(S(=O)(=O)N[C@H]2CC[C@H]3[C@@H]4CCc5cc(O)ccc5[C@H]4CC[C@]23C)cc1`, the GI50 in experiment [1] was 3.74 µM; in [2], 1.85 µM; in [3], 1.89 µM; in experiment [4], 2.91 µM; in experiment [5], 1.75 µM; in experiment [6] it was 1.65 µM. Also, the GI50 in [7] was 2.39 µM; in experiment [8] it was 1.74 µM; in [9], 2.16 µM. The TGI is 10.8 µM in experiment [1]; 3.3 µM in [2]; 4.45 µM in experiment [3]; 10.2 µM in experiment [4]; 3.32 µM in [5]; 3.05 µM in experiment [6]. Further, the TGI was 6.98 µM in experiment [7], 3.57 µM in [8] and 5.91 µM in experiment [9].

Consider `Cc1ccc(OCCCCCCNCCO)c(C)c1`, for which the GI50 in experiment [1] is 16.2 µM; in [2] it was 10 µM; in experiment [3] it was 12.7 µM; in experiment [4], 13.6 µM; in experiment [5] it was 13.5 µM; in experiment [6], 10.4 µM. Also, the GI50 in experiment [7] is 14.3 µM; in [8], 13.9 µM; in experiment [9], 12.1 µM. Also, the TGI in experiment [1] came to 35.3 µM; in [2], 26.3 µM; in [3] it was 26.8 µM; in experiment [4] it was 28.8 µM; in experiment [5], 28 µM; in [6] it was 22.4 µM. Besides, the results for the TGI in [7], in experiment [8] and in experiment [9] were 35.5 µM, 28.7 µM and 25.7 µM, respectively.

`CCOc1cccnc1/C=N/NC(N)=S`: the GI50 was 5.01 µM in experiment [1]; 3.87 µM in experiment [2]; 2.9 µM in [3]; 2.79 µM in [4]; 6.02 µM in experiment [5]; 3.4 µM in experiment [6]. Besides, the figures for the GI50 in experiment [7] and in experiment [8] were 52.3 µM and 3.25 µM, respectively. The TGI in [1], in experiment [2], in experiment [3], in [4], in [5] and in [6] was greater than 100 µM throughout. For the same molecule, the TGI in [7] and in experiment [8] was greater than 100 µM throughout.

`CCOC(=O)C1=C(c2ccccc2)N(Cc2ccccc2)C2(O)C=CC(=O)C3C(=O)N(c4ccccc4)C(=O)C132` (centres undefined): the GI50 in experiment [10] was 2.43 µM; in experiment [2], 1.74 µM; in experiment [3], 1.51 µM; in experiment [4], 2.94 µM; in [5], 1.76 µM; in experiment [6], 1.49 µM. Moreover, the GI50 is 3.46 µM in [7], 1.29 µM in experiment [8] and 1.63 µM in [9]. The TGI in experiment [10] worked out at 6.51 µM; in experiment [2], 3.45 µM; in [3], 2.93 µM; in experiment [4] it was 10.8 µM; in experiment [5] it was 3.58 µM; in [6] it was 2.93 µM. Moreover, the results for the TGI in experiment [7], in experiment [8] and in experiment [9] were 18.3 µM, 3.08 µM and 3.16 µM, respectively.

`Cc1cnc2[nH]c(-c3ccccc3)cc(=O)c2c1`: the TGI in experiment [10] is greater than 82.2 µM; in experiment [1] it was greater than 100 µM; in experiment [2], greater than 100 µM; in [3] it was greater than 22.1 µM; in experiment [4], greater than 100 µM; in experiment [5], greater than 100 µM. Also, the TGI in [6] was 21.2 µM; in experiment [7] it was 0.0595 µM; in [8], greater than 100 µM.
